# Assay results reported in article PMC12631831, “Painting Peptides With Antimicrobial Potency Through Deep Reinforcement Learning” (Advanced Science, 2025).
# Ends that are not written are not given here.
# Test system: B.subtilis ATCC6633
# Test: not given
# Settings: ATCC6633, 18 h
# Procedure: (§1) Four standard bacteria used for the MIC test were Escherichia coli ATCC25922, Pseudomonas aeruginosa ATCC9027, Staphylococcus aureus ATCC6538, and Bacillus subtilis ATCC6633. The testing procedures followed the Hancock methods.^[ [67] ^] The peptides were diluted in sterilized PBS to 512 µM as storage solutions. Then twofold gradient dilution was performed to make different concentrations (128, 64, 32, 16, 8, 4, 2, 1, 0.5, 0.25, and 0.125 µM) of AMPs. Each bacteria was incubated in LB broth at 37 °C until its absorbance at 625 nm reached 0.08–0.10, then diluted 10,000 times and added into a sterile 96‐well polypropylene plate (Grenier, #655201). A co‐incubation system included 100 µL peptide solution and 100 µL bacterial suspension.
Sequence,MIC B.subtilis ATCC6633 [µM],MIC B.subtilis [µM]
QPKKPYKPIYKKVRGVLIPFKRV [R10],> 128,
"FFHHIFRAIVHVGKTIHRLVTG [Piscidin 1 [G8A], reference compound]",,4
WWWHLRIWLKKKHQKAQWKKFGWFMKQHH [R05],8,
RLKIHLYIKHYRRPKIVIRLKIK [R01],> 128,
DGWTMVKARYIKRFMRGLRGFHIKAA [2-1],8,
WIPKRFGIVIKRFYYRPFYPLFQ [R07],> 128,
WVQKKVIKLILKGLFALKLLG [S03],> 128,
KLKIKFKFHLKLFGLF [S09],> 128,

# Same assay, conditions: initial sequences of A01-A10, same conditions as A01-A10
row,Sequence,MIC B.subtilis [µM]
1,"GIKDWIKGAAKTLIKTVASHIANQ [Ascaphin-5, reference compound]",16

# Test system: E.coli ATCC25922
# Test: not given
# Settings: ATCC25922, 18 h
# Procedure: as §1
Sequence,MIC E.coli [µM],MIC E.coli ATCC25922 [µM]
"GIKDWIKGAAKTLIKTVASHIANQ [Ascaphin-5, reference compound]",16,
QPKKPYKPIYKKVRGVLIPFKRV [R10],,> 128
"FFHHIFRAIVHVGKTIHRLVTG [Piscidin 1 [G8A], reference compound]",16,
WWWHLRIWLKKKHQKAQWKKFGWFMKQHH [R05],,> 128
RLKIHLYIKHYRRPKIVIRLKIK [R01],,> 128
DGWTMVKARYIKRFMRGLRGFHIKAA [2-1],,8
WIPKRFGIVIKRFYYRPFYPLFQ [R07],,> 128
WVQKKVIKLILKGLFALKLLG [S03],,> 128
KLKIKFKFHLKLFGLF [S09],,> 128

# Test system: P.aeruginosa ATCC9027
# Test: not given
# Settings: ATCC9027, 18 h
# Procedure: as §1
Sequence,MIC P.aeruginosa [µM],MIC P.aeruginosa ATCC9027 [µM]
"GIKDWIKGAAKTLIKTVASHIANQ [Ascaphin-5, reference compound]",128,
QPKKPYKPIYKKVRGVLIPFKRV [R10],,> 128
"FFHHIFRAIVHVGKTIHRLVTG [Piscidin 1 [G8A], reference compound]",> 128,
WWWHLRIWLKKKHQKAQWKKFGWFMKQHH [R05],,128
RLKIHLYIKHYRRPKIVIRLKIK [R01],,> 128
DGWTMVKARYIKRFMRGLRGFHIKAA [2-1],,> 128
WIPKRFGIVIKRFYYRPFYPLFQ [R07],,> 128
WVQKKVIKLILKGLFALKLLG [S03],,> 128
KLKIKFKFHLKLFGLF [S09],,> 128

# Test system: S.aureus ATCC6538
# Test: not given
# Settings: ATCC6538, 18 h
# Procedure: as §1
Sequence,MIC S.aureus [µM],MIC S.aureus ATCC6538 [µM]
"GIKDWIKGAAKTLIKTVASHIANQ [Ascaphin-5, reference compound]",4,
QPKKPYKPIYKKVRGVLIPFKRV [R10],,> 128
"FFHHIFRAIVHVGKTIHRLVTG [Piscidin 1 [G8A], reference compound]",4,
WWWHLRIWLKKKHQKAQWKKFGWFMKQHH [R05],,2
RLKIHLYIKHYRRPKIVIRLKIK [R01],,128
DGWTMVKARYIKRFMRGLRGFHIKAA [2-1],,16
WIPKRFGIVIKRFYYRPFYPLFQ [R07],,128
WVQKKVIKLILKGLFALKLLG [S03],,128
KLKIKFKFHLKLFGLF [S09],,128

# Test system: rat erythrocytes
# Test: Hemolysis assay
# Settings: rat RBC 10% in PBS, 37 °C, 1 min, 1-128 µM, absorbance 450 nm, triplicate, fitted with GraphPad Prism 8
# Procedure: In vitro hemolysis and cytotoxicity were measured by WuXi AppTec Co., ltd. The rat blood was collected and mixed in PBS, then centrifuged at 500 g for 5 mins to make the red blood cell solution (RBC, 10%). Two‐fold gradient dilution was performed to obtain different concentrations (128, 64, 32, 16, 8, 4, 2, and 1 µM) of AMP solutions. Then AMP solutions were added into 100 µL RBC to make the test solution and incubated at 37 °C for 1 min. The assay solution was centrifuged at 2500 g for 6 mins. After centrifugation, the 75 µL supernatant was placed into a 96‐well plate. PBS was used as the vehicle control and 0.1% Triton X‐100 was the positive control. The absorbance of the supernatant in each well was detected at 450 nm using EnVison (PerkinElmer) and the percentage of hemolysis was calculated as Equation (15). The HC25 value was fitted using GraphPad Prism 8. All tests were performed in triplicate. (15) Hemolysis%=AbsAMP−AbsPBS/AbsTritonX−100−AbsPBS×100
row,Sequence,HC25 (concentration that causes 25% hemolysis) [µM]
1,VKKRLLFRKPLLKLFLLFGRRLKA [S07],> 128
2,KQQRKRGRVRKALLGKVIGFGGLKLKG [S08],> 128
3,WKKWRWWWRWKKLWW [A10],30.13
4,WRWKGRWRRKLKKLRWKLKKKLKLG [A03],> 128
5,RWRKWRRWWWRKKKLGF [A06],> 128
6,RWWRGWWRRKLKKLRKKLKKKLKGM [A01],14.66
7,KWWKRRRWRWRWKKLWK [A04],> 128
8,RRLRRLRILLFLKRVLRR [S02],> 128
9,WVQKKVIKLILKGLFALKLLG [S03],> 128

# Test system: HEK293T cells
# Test: Cytotoxicity assay (CellTiter-Glo)
# Format: cell-based, human
# Settings: 72 h, 1-128 µM, triplicate
# Procedure: HEK293T cells were cultured in DMEM supplemented with 10% FBS and incubated at 37 °C with 5% CO2. After planting the cells into a 96‐well plate and incubated overnight, AMP solutions were added. The gradient dilution of AMPs followed the same setting as mentioned in the hemolysis assay. Staurosporine (STS) was used as a positive control and PBS as vehicle control. STS was diluted to 60, 12, 2.4, 0.48, 0.1, 0.02, 0.0038, and 0.0008 µM. After incubation for 72 h, the CellTiter‐Glo®Luminescent assay was performed to evaluate the cell viability. After equilibration to room temperature, the 96‐well plate containing treated cells was loaded with 100 µL CellTiter Glo (CTG, Promega) reagent each well. The plate was incubated for 30 mins, then detected by the EnVision system at a […]. Data were fitted and analyzed with GraphPad Prism 8. All tests were performed in triplicate.
row,Sequence,CC50 (concentration that reduces viability by 50%) [µM]
1,VKKRLLFRKPLLKLFLLFGRRLKA [S07],22.12
2,KQQRKRGRVRKALLGKVIGFGGLKLKG [S08],> 128
3,WKKWRWWWRWKKLWW [A10],51.11
4,WRWKGRWRRKLKKLRWKLKKKLKLG [A03],21.67
5,RWRKWRRWWWRKKKLGF [A06],71.09
6,RWWRGWWRRKLKKLRKKLKKKLKGM [A01],11.62
7,KWWKRRRWRWRWKKLWK [A04],49.63
8,RRLRRLRILLFLKRVLRR [S02],> 128
9,WVQKKVIKLILKGLFALKLLG [S03],> 64

# Test system: rabbit erythrocytes
# Test: not given
# Settings: ref DBAASP; cited from earlier work
row,Sequence,Concentration for 20% hemolysis [µM]
1,SMWSGMWRRKLKKLRNALKKKLKGE [Latarcin-1],80

# Test system: human erythrocytes
# Test: not given
# Settings: ref DBAASP; cited from earlier work
row,Sequence,HC50 [µM]
1,"FFHHIFRAIVHVGKTIHRLVTG [Piscidin 1 [G8A], reference compound]",4

# Same assay, conditions: ref DRAMP; cited from earlier work
row,Sequence,HC50 [µM]
1,"GIKDWIKGAAKTLIKTVASHIANQ [Ascaphin-5, reference compound]",> 200

# Test system: tumor cells
# Test: not given
# Settings: ref DRACP; cited from earlier work
row,Sequence,Hemolysis and cytotoxicity
1,GRKKRRQRRRGGWMWVTNLRTD [TAT-Ras-GAP317-326],Enhances genotoxin-induced cytotoxicity in tumor cells
